Our source for the TGI values is PubChem BioAssay (NCI).

Test systems include COLO 205 colon; T-47D breast; SK-MEL-5 melanoma; K-562 leukemia; MDA-MB-435; MDA-N; EKVX NSCLC; 786-0 renal; SK-MEL-2 melanoma; SR leukemia.
What all share (experiment): growth of human tumour cells (NCI), 48 h

The structures appear in SMILES notation.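 Protocol summary: plate cells (96-well), add compound at 5 concentrations, incubate 48 h, interpolate endpoints linearly. At the TGI there is no net growth.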 A value given as a limit tells only on which side of the number the result lay.

Take `O=C(N/N=C/c1ccc(Cl)cc1)c1cc(I)cc(I)c1O`: the TGI with COLO 205 colon, with T-47D breast, with SK-MEL-5 melanoma, in the test with K-562 leukemia, with MDA-MB-435 and in the test with MDA-N was over 100 µM each time. For the same compound, the TGI in the test with EKVX NSCLC, in the test with 786-0 renal, in the test with SK-MEL-2 melanoma and in the test on SR leukemia was over 100 µM each time.
On to `CN(CCc1ccc(Cl)c(Cl)c1)CCN(C)CCN1CCCC1`, for which the TGI turned out to be 5.3 µM in the test with COLO 205 colon; 44.6 µM with T-47D breast; 7.75 µM in the test on SK-MEL-5 melanoma; 7.27 µM in the test with K-562 leukemia; 4.5 µM in the test on MDA-MB-435; 3.74 µM in the test on MDA-N. Further, the TGI with EKVX NSCLC was 35.5 µM; in the test on 786-0 renal it was 21.9 µM; with SK-MEL-2 melanoma, 10 µM; with SR leukemia, 17.2 µM.
Turning to `CCOP(=O)(OCC)C1(O)CC(n2cc(C)c(=O)[nH]c2=O)OC1CO` (centres undefined), the TGI in the test on COLO 205 colon, in the test with T-47D breast, with SK-MEL-5 melanoma, in the test on K-562 leukemia, in the test with MDA-MB-435 and in the test on MDA-N was over 100 µM in each case. For the same compound, the TGI in the test on EKVX NSCLC, in the test on 786-0 renal, with SK-MEL-2 melanoma and in the test on SR leukemia was over 100 µM throughout.
Regarding `c1csc(-c2csc(-c3ccsc3)c2)c1`, the TGI in the test with COLO 205 colon, in the test with T-47D breast, in the test on SK-MEL-5 melanoma, with K-562 leukemia, in the test on MDA-MB-435 and in the test on MDA-N was over 100 µM throughout. In addition, the TGI in the test with EKVX NSCLC, with 786-0 renal, in the test on SK-MEL-2 melanoma and with SR leukemia was over 100 µM each time.
As to `CNC(=S)N/N=C(\C)c1nc2ncccc2[nH]1`, the TGI in the test with COLO 205 colon, in the test on T-47D breast, with SK-MEL-5 melanoma, in the test on K-562 leukemia, with MDA-MB-435 and in the test with MDA-N was over 100 µM throughout. Moreover, the TGI in the test with EKVX NSCLC, with 786-0 renal, in the test on SK-MEL-2 melanoma and in the test with SR leukemia was over 100 µM in each case.
On to `O=C1NC2CCCCC2N=C1/C(C(=O)c1ccccc1)=C(\O)c1ccccc1` (centres undefined), for which the TGI in the test on COLO 205 colon, in the test on T-47D breast, with SK-MEL-5 melanoma, with K-562 leukemia, in the test with MDA-MB-435 and with MDA-N was over 100 µM in each case. Also, the TGI in the test with EKVX NSCLC is over 100 µM; with 786-0 renal, over 100 µM; in the test with SK-MEL-2 melanoma it was over 100 µM; in the test with SR leukemia, 92.3 µM.
In the case of `O/N=C1\CCc2nonc2\C1=N/Nc1ccccc1`, the TGI with COLO 205 colon, with T-47D breast, with SK-MEL-5 melanoma, with K-562 leukemia, with MDA-MB-435 and in the test with MDA-N was over 100 µM in each case. Besides, the TGI in the test on EKVX NSCLC, with 786-0 renal, with SK-MEL-2 melanoma and in the test with SR leukemia was over 100 µM each time.
With `N=C(N)SCCCN`, the TGI is 29.5 µM in the test with COLO 205 colon; over 100 µM with T-47D breast; 30.1 µM in the test with SK-MEL-5 melanoma; over 66.8 µM in the test on K-562 leukemia; 14 µM in the test with MDA-MB-435; 26 µM in the test with MDA-N. Further, the TGI is over 91.4 µM with EKVX NSCLC, 66.1 µM in the test on 786-0 renal, 32.2 µM in the test on SK-MEL-2 melanoma and 23.5 µM with SR leukemia.
With `COc1ccc2c(-c3ccc(OCCN(C)C)cc3)c(Oc3ccc(Cl)cc3)c(=O)oc2c1`, the TGI with COLO 205 colon was 10.5 µM; with T-47D breast it was over 100 µM; in the test with SK-MEL-5 melanoma, 3.19 µM; in the test on K-562 leukemia, 4.95 µM; with MDA-MB-435, 8.66 µM; in the test with MDA-N, 4.39 µM. Also, the TGI with EKVX NSCLC is 26.2 µM; with 786-0 renal, 6.32 µM; with SK-MEL-2 melanoma it was 19.1 µM; in the test with SR leukemia, 5.06 µM.
As to `CC(C)(C)OC(=O)NCC(=O)NC1C/C(=N\O)c2sccc21` (centres undefined), the TGI with COLO 205 colon, in the test on T-47D breast, with SK-MEL-5 melanoma, in the test with K-562 leukemia, with MDA-MB-435 and in the test with MDA-N was over 100 µM throughout. The TGI in the test with EKVX NSCLC, with SK-MEL-2 melanoma and with SR leukemia was over 100 µM throughout.
Consider `Cc1nn(C(=O)c2ccncc2)c2c1C(c1cccc([N+](=O)[O-])c1)SC(N)=N2` (centres undefined), for which the TGI with COLO 205 colon, in the test with T-47D breast, in the test on SK-MEL-5 melanoma, in the test with K-562 leukemia, in the test on MDA-MB-435 and in the test with MDA-N was over 10 µM in each case. Also, the TGI in the test with EKVX NSCLC, with 786-0 renal, with SK-MEL-2 melanoma and with SR leukemia was over 10 µM each time.
`CC1(C)CCCCCCCCCC(C)(CCCCCCCCCCCCO)C1=O` (centres undefined): the TGI in the test with COLO 205 colon was determined as 62.7 µM; with T-47D breast, 34 µM; in the test with SK-MEL-5 melanoma it was 35.3 µM; in the test on K-562 leukemia, 54.3 µM; with MDA-MB-435 it was 33 µM; with MDA-N, 33.7 µM. In addition, the TGI is 34.8 µM in the test with EKVX NSCLC, 32.6 µM in the test with 786-0 renal, 32.7 µM in the test with SK-MEL-2 melanoma and over 100 µM in the test with SR leukemia.
With `O/N=C1/C2CC3CC1(c1ccccc1)CC(/C3=N/O)/C2=N\O` (centres undefined), the TGI with COLO 205 colon, in the test on T-47D breast, in the test with SK-MEL-5 melanoma, with K-562 leukemia, in the test on MDA-MB-435 and in the test with MDA-N was over 100 µM each time. The TGI in the test on EKVX NSCLC, in the test on 786-0 renal, with SK-MEL-2 melanoma and in the test on SR leukemia was over 100 µM each time.
